# Literature values, collected in patent US20030133995A1, “Ingestible capsaicin neutralizer” (priority 2002, published 2003).
# Experiments:
# [1] = pure capsaicin
# [2] = tested on: tongue; details: pure form diluted one hundred thousand fold
# [3] = pure form
compound,measurement,setting,value
"COc1cc(CNC(=O)CCCC/C=C/C(C)C)ccc1O [capsaicin, N-Vanillyl-8-methyl-6-(E)-noneamide]",heat sensation,[1],"approximately 16,000,000 Scoville units"
same,blistering of the tongue,[2],can cause blistering of the tongue
same,solubility in aqueous solutions,[3]; aqueous solutions,not very soluble
same,"solubility in fats, oils and alcohols","[3]; fats, oils and alcohols",quite soluble
